Test results published in US20260207759A1, “COMPOSITION OF CD40-BINDING MOLECULE AND PHARMACEUTICAL USE THEREOF” (SUZHOU SUNCADIA BIOPHARMACEUTICALS CO., LTD., priority 2022, published 2026).

Legend:
[1] = test system: human CD40 transgenic mice; assay: Mouse skin graft rejection model (anti-CD40-ADC); format: in vivo; details: 10 mpk ip, budesonide 0.12 mg/kg QD, dexamethasone 20 mpk QD
Description: Male Balb/c mice, 6 weeks old, were purchased from the Laboratory Animal Management Department, Shanghai Institute of Planned Parenthood Research.
(§1) On day −2 of the experiment, the mice were intraperitoneally injected with the CD40 antagonistic antibody, anti-CD40-ADC, or glucocorticoid. On day 0 of the experiment, donor Balb/c mice and C57BL6/J mice were anesthetized with 4% chloral hydrate. The tails of the donor mice were removed, and full circles of skin, 1 cm in length, were isolated from the tails. The hair on the acceptor mice's back was removed, and an incision was made along the skin layer. An equal area of skin was removed while preserving the back fat and connective tissue. The donor skin was placed on the acceptor mice's incision site, and the incision was closed with glue. The mice were then placed back in cages to recover.
The mice were dosed according to the administration regimens in Table 27. After 7 days of recovery, the mouse skin survival was observed daily and rejection scores were recorded.

[2] = test system: human CD40 transgenic mice; assay: Mouse skin graft rejection model (antibodies, tacrolimus combination); format: in vivo; details: FK506 3 mpk, alone or combined
Description: Male Balb/c mice, 6 weeks old, were purchased from the Laboratory Animal Management Department, Shanghai Institute of Planned Parenthood Research. Housing environment: SPF; certification number: 20180006023393.
as §1, with “On day-2” for “On day −2”, “with tacrolimus FK506 or” for “with the”, “antagonistic antibodies.” for “antagonistic antibody, anti-CD40-ADC, or glucocorticoid.”
The mice were dosed according to the administration regimens in Table 16. After 7 days of recovery, the mouse skin survival was observed daily and rejection scores were recorded.

Row | SMILES | Skin graft survival rate (%), 10 days [1] [%] | Skin graft survival rate (%), 15 days [1] [%] | Skin graft survival rate (%), 20 days [1] [%] | Skin graft score, 10 days ([1]; score 3 to 0) | Skin graft score, 15 days ([1]; score 3 to 0) | Skin graft score, 20 days ([1]; score 3 to 0) | Day-15 skin graft survival rate (%) ([2]; Table 20: antibody 10 mpk) | Skin graft score, 8 days ([2]; Table 22: 2F12-L4H2 10 mpk) | Skin graft score, 10 days ([2]; Table 22: 2F12-L4H2 10 mpk) | Skin graft score, 15 days ([2]; Table 22: 2F12-L4H2 10 mpk) | Skin graft score, 20 days ([2]; Table 22: 2F12-L4H2 10 mpk)
1 | C[C@@H]1C[C@H]2[C@@H]3CCC4=CC(=O)C=C[C@]4(C)[C@@]3(F)[C@@H](O)C[C@]2(C)[C@@]1(O)C(=O)CO [Dexamethasone] | 88.9 | 88.9 | 66.7 | 2.33 | 2 | 1.56 |  |  |  |  | 
2 | C=CC[C@@H]1/C=C(\C)C[C@H](C)C[C@H](OC)[C@H]2O[C@@](O)(C(=O)C(=O)N3CCCC[C@H]3C(=O)O[C@H](/C(C)=C/[C@@H]3CC[C@@H](O)[C@H](OC)C3)[C@H](C)[C@@H](O)CC1=O)[C@H](C)C[C@@H]2OC [FK506, tacrolimus] |  |  |  |  |  |  | 16.7 | 2.5 | 1.5 | 0.5 | 0
